# In JP2013241470A, “ペプチド含有組成物” (Kikkoman Corp, priority 2013, dated 2013):
# Target: T1, ACE (angiotensin converting enzyme) (アンジオテンシン変換酵素) (Oryctolagus cuniculus, UniProt P12822)
# T1 construct: 0.3U/ml ACE(ウサギ肺由来、シグマ製); purchased Sigma (シグマ); host or cells: rabbit lung tissue
# T1 sequence (P12822 34-1310): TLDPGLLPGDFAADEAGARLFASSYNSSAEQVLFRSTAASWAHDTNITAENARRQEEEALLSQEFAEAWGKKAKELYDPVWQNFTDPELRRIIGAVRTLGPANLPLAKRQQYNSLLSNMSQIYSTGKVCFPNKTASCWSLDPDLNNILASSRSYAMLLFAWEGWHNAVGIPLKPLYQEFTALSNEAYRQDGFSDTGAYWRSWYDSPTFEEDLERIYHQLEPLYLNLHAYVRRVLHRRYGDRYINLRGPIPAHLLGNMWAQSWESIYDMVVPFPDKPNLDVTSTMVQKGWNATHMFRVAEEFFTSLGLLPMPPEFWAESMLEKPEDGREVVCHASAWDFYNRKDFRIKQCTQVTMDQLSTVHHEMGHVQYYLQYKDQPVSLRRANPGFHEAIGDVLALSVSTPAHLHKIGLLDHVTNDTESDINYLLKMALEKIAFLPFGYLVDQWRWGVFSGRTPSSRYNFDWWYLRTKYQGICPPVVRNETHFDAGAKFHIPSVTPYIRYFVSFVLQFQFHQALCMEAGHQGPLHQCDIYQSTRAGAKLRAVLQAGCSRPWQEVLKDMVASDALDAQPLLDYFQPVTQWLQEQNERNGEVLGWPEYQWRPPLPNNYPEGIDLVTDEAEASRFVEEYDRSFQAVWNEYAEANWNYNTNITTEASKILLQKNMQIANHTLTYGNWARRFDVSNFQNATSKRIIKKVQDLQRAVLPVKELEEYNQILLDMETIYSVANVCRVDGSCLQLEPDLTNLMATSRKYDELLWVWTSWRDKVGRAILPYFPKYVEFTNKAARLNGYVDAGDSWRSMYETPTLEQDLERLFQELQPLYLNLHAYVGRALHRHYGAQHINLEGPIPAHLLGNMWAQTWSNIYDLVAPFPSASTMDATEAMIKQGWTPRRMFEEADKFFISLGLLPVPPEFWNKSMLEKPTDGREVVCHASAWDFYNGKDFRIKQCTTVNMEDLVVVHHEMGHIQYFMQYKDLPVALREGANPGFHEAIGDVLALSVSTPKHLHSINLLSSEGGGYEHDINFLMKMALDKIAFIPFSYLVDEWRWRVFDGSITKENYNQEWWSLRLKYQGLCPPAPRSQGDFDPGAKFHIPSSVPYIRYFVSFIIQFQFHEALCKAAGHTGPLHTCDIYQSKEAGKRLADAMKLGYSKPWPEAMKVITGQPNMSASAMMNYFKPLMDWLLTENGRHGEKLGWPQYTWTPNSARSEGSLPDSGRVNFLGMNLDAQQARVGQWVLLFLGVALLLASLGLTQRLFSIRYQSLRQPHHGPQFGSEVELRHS
# Experiment: ACE inhibitory activity (modified Cushman method, Hippuryl-His-Leu substrate)
# Format: biochemical, rabbit
substance,measurement,setting,value
Tyr−Thr,ACE inhibitory activity,"chemically synthesised peptide, compared with known soybean-derived ACE inhibitory peptides (Table 1, not visible), ACE from rabbit lung, 37 °C, 30 min, pH 8.3",既知のペプチドと比較して充分に強い活性を有している
same,ACE inhibitory activity,chromatographic fractions during isolation from composition 1 (組成物1),矢印で示したピークにのみ活性が見られた
